We go through 3 compounds from ChEMBL document CHEMBL2429746, “Cell-based medicinal chemistry optimization of high throughput screening hits for orally active antimalarials. Part 2: hits from SoftFocus kinase and other libraries” (J Med Chem, 2013).

The subject of data set [1] is Plasmodium falciparum. Kind of data set: Antimalarial activity against Plasmodium falciparum infected in NOD SCID mouse after 4 days by Peters test. The format is functional. The settings on record: 96 h.
The test system of data set [2] is Plasmodium falciparum. Kind of data set: Antimalarial activity against blood stage of Plasmodium falciparum 3D7 assessed as parasite viability after 72 hrs by SYBR green dye-based assay. The settings on record: 3D7, 72 h. The data set is classed as functional, organism-based.
Data set [3] deals with Plasmodium falciparum. Kind of data set: Antimalarial activity against blood stage of Plasmodium falciparum Dd2 assessed as parasite viability after 72 hrs by SYBR green dye-based assay. The data set is classed as functional, organism-based. To be noted: Dd2, 72 h.
Data set [4] can be described thus: Half life in Sprague-Dawley rat at 5 mg/kg, po. The data set is classed as ADME, organism-based. To be noted: in vivo. Set-up: dose 5 mg/kg, route oral.
The test system of data set [5] is Plasmodium falciparum. Kind of data set: Antimalarial activity against Plasmodium falciparum infected in po dosed SCID mouse assessed as reduction in parasitaemia by Peters test. The data set is classed as functional.

What is called IC50 is the midpoint of a concentration-inhibition curve. What is called half-life is the time in which the quantity being followed falls by half. Read a high half-life as slow loss.

Take `O=C(O)CCc1cccc2c1B(O)OC2`: the ED90 in data set [1] is 0.6 mg/kg. For `NC1=Nc2ccc(Cl)cc2C1(O)c1ccccc1` (stereo not given), the results for the IC50 in data set [2] and in data set [3] were 216 nM and 507 nM, respectively. In data set [4], `COc1ccc(-c2cc(-c3ccc(S(C)(=O)=O)cc3)cnc2N)cn1` gave a half-life of 8.7 h. Further, in data set [5], the ED90 was 3.6 mg/kg.
